From patent publication US8846704B2, “Thiopyrimidine-based compounds and uses thereof” (YM Biosciences Austraila Pty Ltd, priority 2007, dated 2014)

Legend:
CTLL2 = assay: Cellular screening, CTLL2 cells, Alamar Blue; assay type: cell-based; conditions: Mus musculus, CTLL-2, read-out: CTLL2 IC50_nM
Experimental: (§1) Cell suspensions were prepared by harvesting cells from culture (the cells used in this test were in late log phase growth with high viability.) Cells were diluted in the appropriate growth medium, as described above, to 1.1× final concentration (from 50,000 cell/mL to 200,000 cell/mL, depending on cell line).
(§2) Compounds to be tested were added (10 μL, 10× final concentration) to a flat bottomed 96-well plate. The cellular suspension (90 μL per well) was then added, and the plate incubated for 40 hr at 37° C., 5% CO2. Alamar Blue 10 μL per well was added and the plates returned to the incubator for a further 4-6 hours. The plates were then read at 544 nm.

[1] = target: T1, BaF3 TELJAK2 cells (BafT_J2) (Homo sapiens, UniProt O60674); assay: Cellular screening, BaF3 TEL:JAK2 cells, Alamar Blue; assay type: cell-based; conditions: 40 hr, read-out: BafT_J2 IC50_nM
T1 construct: fused on or other part: TEL (ETV6) N-terminal part, coding nucleotides 1-487, serves as the oligomerising partner; It is fused through a Sal I site to the JAK2 kinase domain and expressed from pTRE2 in BaF3 cells bearing pTET-off; P41212 (Transcription factor ETV6)
T1 sequence (O60674 whole entry, change not shown, the tested form may be a part): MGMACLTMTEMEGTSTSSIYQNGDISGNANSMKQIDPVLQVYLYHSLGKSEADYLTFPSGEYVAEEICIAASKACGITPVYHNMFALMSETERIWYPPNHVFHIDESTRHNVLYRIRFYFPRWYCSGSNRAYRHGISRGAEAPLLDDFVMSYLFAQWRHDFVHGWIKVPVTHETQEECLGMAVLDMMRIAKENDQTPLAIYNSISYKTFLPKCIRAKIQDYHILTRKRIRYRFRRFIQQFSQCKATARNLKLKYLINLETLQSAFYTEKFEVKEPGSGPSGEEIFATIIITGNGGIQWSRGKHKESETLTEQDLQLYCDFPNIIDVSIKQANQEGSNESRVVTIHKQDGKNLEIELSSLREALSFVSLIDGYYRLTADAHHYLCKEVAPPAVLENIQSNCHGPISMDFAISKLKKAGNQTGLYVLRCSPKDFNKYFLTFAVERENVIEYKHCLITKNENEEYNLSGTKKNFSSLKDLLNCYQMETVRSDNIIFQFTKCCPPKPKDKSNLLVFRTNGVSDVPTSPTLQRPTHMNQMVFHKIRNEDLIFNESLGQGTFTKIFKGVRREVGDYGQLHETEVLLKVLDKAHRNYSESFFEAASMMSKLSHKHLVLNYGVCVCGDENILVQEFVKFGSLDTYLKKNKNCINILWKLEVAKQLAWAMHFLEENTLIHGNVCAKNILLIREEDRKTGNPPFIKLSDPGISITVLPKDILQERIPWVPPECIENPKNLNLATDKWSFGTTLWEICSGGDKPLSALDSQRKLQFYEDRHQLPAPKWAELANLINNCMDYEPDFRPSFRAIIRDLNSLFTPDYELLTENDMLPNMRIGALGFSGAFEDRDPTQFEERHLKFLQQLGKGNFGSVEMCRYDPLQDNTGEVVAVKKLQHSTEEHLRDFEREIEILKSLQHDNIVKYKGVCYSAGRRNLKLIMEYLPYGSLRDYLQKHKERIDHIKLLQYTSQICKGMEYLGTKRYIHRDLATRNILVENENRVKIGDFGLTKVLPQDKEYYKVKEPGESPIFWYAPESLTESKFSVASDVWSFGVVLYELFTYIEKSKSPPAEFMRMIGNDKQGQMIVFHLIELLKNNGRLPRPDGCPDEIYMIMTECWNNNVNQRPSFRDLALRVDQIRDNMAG
Experimental: For screening purposes, compounds were diluted in 96 well plates at a concentration of 20 μM. Plates were warmed at 37° C. for 30 minutes before the assay was performed.
The coding region encompassing nucleotides 1-487 of TEL was amplified by PCR using the oligonucleotides STEL (5′-GGAGGATCCTGATCTCTCTCGCTGTGAGAC-3′) [SEQ ID NO 14] and 3TEL (5′-AGGC GTCGACTTCTTCTTCATGGTTCTG-3′) [SEQ ID NO 15] and U937 mRNA as a template. A […] restriction site was incorporated into the STEL primer, and a Sal I restriction site was incorporated into the 3TEL primer. The regions encompassing the kinase domain of JAK2 (nucleotides 2994-3914; JAK2F 5′-ACGC GTCGACGGTGCCTTTGAAGACCGGGAT-3′ [SEQ ID NO 16]; JAK2R 5′-ATAGTTTAGCGGCCGCTCAGAATGAAGGTCATTT-3′) [SEQ ID NO 17] and JAK3 (nucleotides 2520-3469; JAK3F 5′-GAAGTCGACTATGCCTGCCAAGACCCCACGATCTT-3′) [SEQ ID NO 18] were generated by PCR using Taq DNA polymerase (Gibco/BRL) and […] as a template. A Sal I restriction site was incorporated into the forward primer of JAK2 and JAK3, a Not I site was incorporated into the JAK2 reverse primer and a Xba I site was added to the reverse primer of JAK3.
A TEL/Jak2 fusion was generated by digestion of the TELPCR product with BamH I/Sal I restriction enzymes, digestion of the JAK2 PCR product with Sal I/Not I restriction enzymes, followed by ligation and subcloning of the ligation product into the mammalian expression Vector pTRE 2 (Clontech), which was prepared by digestion with BamH I-Not I restriction enzymes, to give the TEL/Jak2 fusion plasmid pTELJAK2.
The growth factor dependant myelomonocytic cell line BaF3 bearing the pTET-off plasmid (Clontech) was transfected with either pTELJAK2 or pTELJAK3, and the transfected cells were selected for growth-factor independent cell growth. The BaF3 wild-type cells were cultured in DMEM containing 10% FCS, 10% WEHI 3B conditioned medium. The BaF3 TELJAK cells ([…]) were cultured in DMEM 10% Tet-System Approved FBS (without WEHI 3B conditioned medium).
as §1, §2

human JAK2 = target: T2, human JAK2 (Homo sapiens, UniProt O60674); assay: Alphascreen tyrosine kinase enzyme assay, JAK2 kinase domain; assay type: biochemical; conditions: read-out: JAK2 IC50_nM
T2 construct: The kinase domain of human JAK2 was amplified; GST (N); made in house; host or cells: Sf9 insect cells (baculovirus)
T2 sequence (O60674 849-1124 limits assumed): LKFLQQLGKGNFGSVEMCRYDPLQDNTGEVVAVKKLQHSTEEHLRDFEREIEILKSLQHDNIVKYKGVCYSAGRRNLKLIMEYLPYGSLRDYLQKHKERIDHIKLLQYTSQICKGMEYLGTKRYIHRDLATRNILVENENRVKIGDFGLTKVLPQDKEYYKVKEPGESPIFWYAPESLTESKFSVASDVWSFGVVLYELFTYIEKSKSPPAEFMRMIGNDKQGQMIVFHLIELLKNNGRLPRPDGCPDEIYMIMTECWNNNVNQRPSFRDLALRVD
Experimental: For screening purposes, compounds (in 100% DMSO) were warmed at 37 degrees for at least 20 minutes before use. A […] stock was initially made in assay buffer, where the final concentration of DMSO was 0.3%. The stocks were then diluted in 384 well Optiplates (Packard) where the final concentration of the compound was […].
The kinase domain of human JAK2 was amplified from U937mRNA using the polymerase chain reaction with the following primers: […]
The JAK2 PCR products were cloned into the pDest20 destination vector (Gibco). The JAK2 plasmid was then transformed into competent DH10Bac cells (Gibco), and the recombinant baculovirus was prepared via Sf9 insect cell transfection.
Baculovirus preparations from each of the constructs were infected into either one or five liters of Sf9 cells (Invitrogen) grown in SF-900 medium (Invitrogen) to a cell density of approximately 1-2×10^6 cells/ml. Cells were infected with virus at a MOI of 0.8-3.0. Cells were harvested and lysed. Tyrosine kinase domains were purified by affinity chromatography on a glutathione-agarose column (Scientifix Pty. Ltd. catalog #: GSH-200).
Kinase assays were performed in 384 well Optiplates (Packard) using an Alphascreen Protein Tyrosine Kinase PY100 detection kit The compounds were pre-incubated with affinity purified PTK domain in the presence of phosphotyrosine assay buffer (10 mM HEPES, pH 7.5, 100 mM MgCl2, 25 mM NaCl, […] and 0.1% Tween 20) for 20 minutes. The compounds were then incubated with substrate in the presence of ATP. The substrate used was susbtrate-1 with the sequence biotin-EGPWLEEEEEAYGWMDF-NH2 [SEQ. ID. NO. 13] (final concentration […]). For HCK 80 μm ATP was used and incubated for 60 minutes. Alphascreen phosphotyrosine acceptor beads followed by streptavidin donor beads at a concentration of 1/100 in stop buffer were added to each well under subdued light and incubated for 2-3 hours., The Alphascreen plates were read on a Packard Fusion Alpha instrument.

Row | Compound | IC50 (CTLL2) | GI50 [1] | IC50 (human JAK2)
1 | Cc1cc(Sc2nc(Nc3ccc(N4CCOCC4)cc3)ncc2C)ccc1N [Compound 255, 4-(4-ao-3-methylphenylthio)-5-methyl-N-(4-morpholinophenyl)pyrimidin-2-ae] | > 20 µM | < 20 µM | < 1 µM
2 | C=CC(=O)Nc1ccc(Sc2nc(Nc3ccc(N4CCOCC4)nc3)ncc2C)cc1 [Compound 254, N-(4-(5-methyl-2-(6-morpholinopyridin-3-ylao)pyrimidin-4-ylthio)phenyl)acrylamide] | < 1 µM | < 5 µM | > 1 µM
3 | C=CC(=O)Nc1ccc(Sc2nc(Nc3ccc(N4CCOCC4)cc3)ncc2C)cc1C [Compound 259] | < 1 µM | < 20 µM | > 1 µM
4 | CC#CC(=O)Nc1cccc(Nc2nccc(SC)n2)c1 [Compound 8, N-(3-(4-(methylthio)pyrimidin-2-ylao)phenyl)but-2-ynamide] | < 20 µM | < 5 µM | > 1 µM
5 | CC#CC(=O)Nc1ccc(Sc2ccnc(Nc3cccc(N4CCOCC4)c3)n2)cc1 [Compound 233, N-(4-(2-(3-morpholinophenylao)pyrimidin-4-ylthio)phenyl)but-2-ynamide] | < 5 µM | < 5 µM | > 1 µM
6 | C=CC(=O)Nc1ccc(Sc2ccnc(Nc3cccc(CO)c3)n2)cc1 [Compound 278, N-(4-(2-(3-(hydroxymethyl)phenylao)pyrimidin-4-ylthio)phenyl)acrylamide] | – | < 5 µM | > 1 µM
7 | C=CC(=O)Nc1ccc(Sc2nc(Nc3ccc(N4CCN(C)CC4)c(OC)c3)ncc2C)cc1 [Compound 249, N-(4-(2-(3-methoxy-4-(4-methylpiperazin-1-yl)phenylao)-5-methylpyrimidin-4-ylthio)phenyl)acrylamide] | < 1 µM | < 5 µM | > 1 µM
8 | Cc1cnc(Nc2ccc(N3CCOCC3)cc2)nc1Sc1ccc(N)cc1Cl [Compound 251, 4-(4-ao-2-chlorophenylthio)-5-methyl-N-(4-morpholinophenyl)pyrimidin-2-ae] | > 20 µM | > 20 µM | > 1 µM
9 | CC#CC(=O)Nc1cccc(Sc2ccnc(Nc3cccc(N4CCOCC4)c3)n2)c1 [Compound 232, N-(3-(2-(3-morpholinophenylao)pyrimidin-4-ylthio)phenyl)but-2-ynamide] | – | < 20 µM | > 1 µM
10 | C=CC(=O)Nc1ccc(Sc2ccnc(Nc3ccc(O)cc3)n2)cc1 [Compound 276, N-(4-(2-(4-hydroxyphenylao)pyrimidin-4-ylthio)phenyl)acrylamide] | < 1 µM | < 20 µM | > 1 µM
11 | C=CC(=O)Nc1cccc(Nc2nccc(Sc3ccccc3)n2)c1 [Compound 16, N-(3-(4-(phenylthio)pyrimidin-2-ylamino)phenyl)acrylamide] | < 5 µM | < 5 µM | > 1 µM
12 | C=CC(=O)Nc1ccc(Sc2nc(Nc3cccc(OC)c3)ncc2C)cc1 [Compound 235, N-(4-(2-(3-methoxyphenylao)-5-methylpyrimidin-4-ylthio)phenyl)acrylamide] | – | < 20 µM | > 1 µM
13 | C=CC(=O)Nc1ccc(Sc2nc(Nc3cccc(N4CCOCC4)c3)ncc2I)cc1 [Compound 269, N-(4-(5-iodo-2-(3-morpholinophenylao)pyrimidin-4-ylthio)phenyl)acrylamide] | – | < 20 µM | > 1 µM
14 | C=CC(=O)Nc1ccc(Sc2nc(Nc3ccc(N4CCC(CO)CC4)cc3)ncc2Br)cc1 [Compound 253, N-(4-(5-bromo-2-(4-(4-(hydroxymethyl)piperidin-1-yl)phenylao)pyrimidin-4-ylthio)phenyl)acrylamide] | < 1 µM | < 20 µM | > 1 µM
15 | Cc1cnc(Nc2ccc(N3CCN(C)CC3)cc2)nc1Sc1ccc(N)cc1 [Compound 244, 4-(4-aophenylthio)-5-methyl-N-(4-(4-methylpiperazin-1-yl)phenyl)pyrimidin-2-ae] | < 5 µM | < 5 µM | < 0.5 µM
16 | C=CC(=O)Nc1ccc(Sc2nc(Nc3ccc(C)c(Br)c3)ncc2C)cc1 [Compound 242, N-(4-(2-(3-bromo-4-methylphenylao)-5-methylpyrimidin-4-ylthio)phenyl)acrylamide] | > 20 µM | > 20 µM | > 1 µM
17 | C=CC(=O)Nc1ccc(Sc2ccnc(Nc3cccc(O)c3)n2)cc1 [Compound 277, N-(4-(2-(3-hydroxyphenylao)pyrimidin-4-ylthio)phenyl)acrylamide] | < 1 µM | < 5 µM | > 1 µM
18 | C=CC(=O)Nc1ccc(Sc2ccnc(Nc3ccc(N4CCN(C)CC4)cc3)n2)cc1 [Compound 238, N-(4-(2-(4-(4-methylpiperazin-1-yl)phenylao)pyrimidin-4-ylthio)phenyl)acrylamide] | – | < 5 µM | > 1 µM
19 | Cc1cnc(Nc2cccc(N3CCN(C)CC3)c2)nc1Sc1ccc(N)cc1 [Compound 245, 4-(4-aophenylthio)-5-methyl-N-(3-(4-methylpiperazin-1-yl)phenyl)pyrimidin-2-ae] | < 5 µM | < 1 µM | < 0.5 µM
20 | Cc1cnc(Nc2ccc(N3CCOCC3)cc2)nc1Sc1ccc(N)nc1 [Compound 262, 4-(6-aopyridin-3-ylthio)-5-methyl-N-(4-morpholinophenyl)pyrimidin-2-ae] | > 20 µM | < 20 µM | < 0.5 µM
21 | Nc1ccc(Sc2nc(Nc3ccc(N4CCOCC4)cc3)ncc2F)cc1 [Compound 263, 4-(4-aophenylthio)-5-fluoro-N-(4-morpholinophenyl)pyrimidin-2-ae] | > 20 µM | < 5 µM | > 1 µM
22 | C=CC(=O)Nc1ccc(Sc2nc(Nc3cccc(N4CCOCC4)c3)ncc2C)cc1 [Compound 237, N-(4-(5-methyl-2-(3-morpholinophenylao)pyrimidin-4-ylthio)phenyl)acrylamide] | < 1 µM | < 5 µM | > 1 µM
23 | C=CC(=O)Nc1ccc(Nc2nccc(SC)n2)cc1 [Compound 13, N-(4-(4-(methylthio)pyrimidin-2-ylao)phenyl)acrylamide] | > 20 µM | < 20 µM | > 1 µM
